Values quoted from earlier work in patent US20210330638A1, “NANO-PENETRATIVE CANNABINOID OIL BLENDS AND COMPOSITIONS AND METHODS OF FORMULATION THEREOF” (Theragun, Inc., priority 2020, published 2021).

Conditions: in vivo

pulmonary uptake: 60%
Compound: CC1=CCC2CC1C2(C)C (stereo not drawn) [a-Pinene, alpha-pinene]
